Results on two molecules are retold here after PMC4595737, “Cyclic diguanylate monophosphate directly binds to human siderocalin and inhibits its antibacterial activity” (Nature Communications, 2015).

Molecules are shown by their SMILES.

Assay type in all cases: binding
Test [1] addresses T1, Siderocalin (LCN2) (Homo sapiens, UniProt P80188).
T1 construct: recombinant human LCN2 (rLCN2) without a signal peptide fragment
Description: ITC ([…], n=[…]); UV cross-linking with c-di-[…]GMP and cold competition.

A further test has as its target T2, STING (Homo sapiens, UniProt Q86WV6).
T2 construct: gene STING1
Description: UV cross-linking with c-di-[…]GMP, SDS-PAGE autoradiography (STING as positive control).

Test [2] concerns the target T3, Siderocalin (LCN2), rLCN2-W79A (Homo sapiens, UniProt P80188, W99A).
T3 construct: recombinant human LCN2 (rLCN2) without a signal peptide fragment
Description: ITC. For orientation: Isothermal titration calorimetry measures the heat released or taken up as one component is titrated into another.

Test [3] concerns the target T1, Siderocalin (LCN2). Description: ITC; competition with c-di-[…]GMP cross-linking.

T1 sequence (P80188 21-198): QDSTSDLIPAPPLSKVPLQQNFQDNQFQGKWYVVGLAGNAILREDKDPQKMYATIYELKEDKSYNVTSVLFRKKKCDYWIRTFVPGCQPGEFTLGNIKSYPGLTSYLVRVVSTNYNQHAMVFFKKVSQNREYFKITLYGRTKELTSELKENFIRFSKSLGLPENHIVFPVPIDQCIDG
T3 sequence (P80188 21-198 W99A): as the sequence (P80188 21-198) above, with W79A counted along it
T2 sequence (Q86WV6 whole entry): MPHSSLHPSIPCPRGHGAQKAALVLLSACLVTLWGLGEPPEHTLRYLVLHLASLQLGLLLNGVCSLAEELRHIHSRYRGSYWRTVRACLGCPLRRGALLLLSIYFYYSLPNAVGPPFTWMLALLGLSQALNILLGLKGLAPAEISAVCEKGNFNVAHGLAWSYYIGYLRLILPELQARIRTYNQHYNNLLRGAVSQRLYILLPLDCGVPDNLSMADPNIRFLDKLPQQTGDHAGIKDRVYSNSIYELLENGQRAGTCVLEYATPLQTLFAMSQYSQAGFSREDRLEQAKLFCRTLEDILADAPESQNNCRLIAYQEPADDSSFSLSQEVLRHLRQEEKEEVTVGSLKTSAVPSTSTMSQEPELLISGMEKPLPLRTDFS

One may read the Kd as the constant that tells how readily two partners part at equilibrium. A low value points to higher affinity. Consider `Nc1nc2c(ncn2[C@@H]2O[C@@H]3COP(=O)(O)O[C@H]4[C@@H](O)[C@H](n5cnc6c(=O)[nH]c(N)nc65)O[C@@H]4COP(=O)(O)O[C@H]3[C@H]2O)c(=O)[nH]1` [c-di-GMP], for which the Kd at Siderocalin (LCN2) [1] was 1.63 ± 0.05 µM. For the same molecule, at STING, the “UV cross-linking with c-di-[32P]GMP, SDS-PAGE autoradiography (STING as positive)” value is recorded as “STING, as a positive control, could clearly bind to the second messenger as indicated by an autoradiograph signal”.

Turning to `O=C(N[C@H]1COC(=O)[C@@H](NC(=O)c2cccc(O)c2[O-])COC(=O)[C@@H](NC(=O)c2cccc(O)c2[O-])COC1=O)c1cccc(O)c1[O-].[Fe+3]` [ferric enterobactin], the Kd in test [2] is 0.25 ± 0.05 µM; at Siderocalin (LCN2) [3], 0.24 ± 0.03 µM.
